{"source": "ChEMBL document CHEMBL4261482", "about": "“Development of small molecular compounds targeting cancer stem cells” (Medchemcomm, 2017)", "key": {"MV4-11": {"system": "MV4-11", "assay": "Cytotoxicity against human MV4-11 cells assessed as decrease in cell viability after 48 hrs by MTT assay", "format": "functional, cell-based", "conditions": "MV4-11, 48 h"}, "THP-1": {"system": "THP-1", "assay": "Cytotoxicity against human THP1 cells assessed as decrease in cell viability after 48 hrs by MTT assay", "format": "functional, cell-based", "conditions": "THP-1, 48 h"}, "KG-1": {"system": "KG-1", "assay": "Cytotoxicity against human KG1 cells assessed as decrease in cell viability after 48 hrs by MTT assay", "format": "functional, cell-based", "conditions": "KG-1, 48 h"}, "[1]": {"assay": "Cytotoxicity against human KOCL48 cells assessed as decrease in cell viability after 48 hrs by MTT assay", "format": "functional, cell-based"}, "MOLM-13": {"system": "MOLM-13", "assay": "Cytotoxicity against human MOLM13 cells assessed as decrease in cell viability after 48 hrs by MTT assay", "format": "functional, cell-based", "conditions": "MOLM-13, 48 h"}, "KG-1a": {"system": "KG-1a", "assay": "Cytotoxicity against human KG1a cells assessed as decrease in cell viability after 48 hrs by MTT assay", "format": "functional, cell-based"}, "K562": {"system": "K562", "assay": "Cytotoxicity against human K562 cells assessed as decrease in cell viability after 48 hrs by MTT assay", "format": "functional, cell-based", "conditions": "K562, 48 h"}, "ML-2": {"system": "ML-2", "assay": "Cytotoxicity against human ML2 cells assessed as decrease in cell viability after 48 hrs by MTT assay", "format": "functional, cell-based", "conditions": "ML-2, 48 h"}, "U-937": {"system": "U-937", "assay": "Cytotoxicity against human U937 cells assessed as decrease in cell viability after 48 hrs by MTT assay", "format": "functional, cell-based", "conditions": "U-937, 48 h"}, "CAKI-1": {"system": "CAKI-1", "assay": "Cytotoxicity against human Caki1 cells assessed as decrease in cell viability after 72 hrs by MTT assay", "format": "functional, cell-based", "conditions": "CAKI-1, 72 h"}, "769-P": {"system": "769-P", "assay": "Cytotoxicity against human 769-P cells assessed as decrease in cell viability after 72 hrs by MTT assay", "format": "functional, cell-based"}, "786-0": {"system": "786-0", "assay": "Cytotoxicity against human 786-O cells assessed as decrease in cell viability after 72 hrs by MTT assay", "format": "functional, cell-based", "conditions": "786-0, 72 h"}, "[2]": {"assay": "Cytotoxicity against human VMRC-RCW cells assessed as decrease in cell viability after 72 hrs by MTT assay", "format": "functional, cell-based"}, "CAKI-2": {"system": "CAKI-2", "assay": "Cytotoxicity against human Caki2 cells assessed as decrease in cell viability after 72 hrs by MTT assay", "format": "functional, cell-based", "conditions": "CAKI-2, 72 h"}, "Lu-99 cell line [3]": {"system": "Lu-99 cell line", "assay": "Cytotoxicity against human LU99 cells assessed as decrease in cell viability after 72 hrs by CCK8 assay", "format": "functional, cell-based", "conditions": "Lu-99, 72 h"}, "Daudi": {"system": "Daudi", "assay": "Cytotoxicity against human Daudi cells assessed as decrease in cell viability after 72 hrs by CCK8 assay", "format": "functional, cell-based"}, "MKN-1": {"system": "MKN-1", "assay": "Cytotoxicity against human MKN1 cells assessed as decrease in cell viability after 72 hrs by CCK8 assay", "format": "functional, cell-based", "conditions": "MKN-1, 72 h"}, "HCT-116": {"system": "HCT-116", "assay": "Cytotoxicity against human HCT116 cells assessed as decrease in cell viability after 72 hrs by CCK8 assay", "format": "functional, cell-based", "conditions": "HCT-116, 72 h"}, "MIA PaCa-2": {"system": "MIA PaCa-2", "assay": "Cytotoxicity against human MIAPaCa2 cells assessed as decrease in cell viability after 72 hrs by CCK8 assay", "format": "functional, cell-based", "conditions": "MIA PaCa-2, 72 h"}, "UMUC3": {"system": "UMUC3", "assay": "Cytotoxicity against human UM-UC-3 cells assessed as decrease in cell viability after 72 hrs by CCK8 assay", "format": "functional, cell-based", "conditions": "UMUC3, 72 h"}, "MKN-45": {"system": "MKN-45", "assay": "Cytotoxicity against human MKN45 cells assessed as decrease in cell viability after 72 hrs by CCK8 assay", "format": "functional, cell-based", "conditions": "MKN-45, 72 h"}, "DU-4475": {"system": "DU-4475", "assay": "Cytotoxicity against human DU4475 cells assessed as decrease in cell viability after 72 hrs by CCK8 assay", "format": "functional, cell-based", "conditions": "DU-4475, 72 h"}, "A549 [4]": {"system": "A549", "assay": "Cytotoxicity against human A549 cells assessed as decrease in cell viability after 72 hrs by CCK8 assay", "format": "functional, cell-based", "conditions": "A549, 72 h"}, "CWR22R": {"system": "CWR22R", "assay": "Cytotoxicity against human 22Rv1 cells assessed as decrease in cell viability after 72 hrs by CCK8 assay", "format": "functional, cell-based", "conditions": "22Rv1, 72 h"}, "T47D": {"system": "T47D", "assay": "Cytotoxicity against human T47D cells assessed as decrease in cell viability after 72 hrs by CCK8 assay", "format": "functional, cell-based"}, "HepG2": {"system": "HepG2", "assay": "Cytotoxicity against human HepG2 cells assessed as decrease in cell viability after 72 hrs by CCK8 assay", "format": "functional, cell-based", "conditions": "HepG2, 72 h"}, "MDA-MB-231": {"system": "MDA-MB-231", "assay": "Cytotoxicity against human MDA-MB-231 cells assessed as decrease in cell viability after 72 hrs by CCK8 assay", "format": "functional, cell-based", "conditions": "MDA-MB-231, 72 h"}, "A549 [5]": {"system": "A549", "assay": "Antitumor activity against human A549 cells xenografted in BALB/cSLC-nu/nu mouse assessed as tumor growth inhibition at 5 mg/kg, iv qd administered for 14 days measured on day 15 relative to control", "format": "functional", "conditions": "read-out: TGI"}, "Lu-99 cell line [6]": {"system": "Lu-99 cell line", "assay": "Antitumor activity against human LU99 cells xenografted in BALB/cSLC-nu/nu mouse assessed as tumor growth inhibition at 5 mg/kg, iv qd administered for 14 days measured on day 15 relative to control", "format": "functional", "conditions": "Lu-99, iv, read-out: TGI"}, "Caov-3 cell line": {"system": "Caov-3 cell line", "assay": "Cytotoxicity against human Caov3 cells assessed as decrease in cell viability after 72 hrs by CCK8 assay", "format": "functional, cell-based", "conditions": "Caov-3, 72 h"}, "PA-1": {"system": "PA-1", "assay": "Cytotoxicity against human PA1 cells assessed as decrease in cell viability after 72 hrs by CCK8 assay", "format": "functional, cell-based", "conditions": "PA-1, 72 h"}, "[7]": {"assay": "Cytotoxicity against human ES2 cells assessed as decrease in cell viability after 72 hrs by CCK8 assay", "format": "functional, cell-based", "conditions": "ES-2, 72 h"}, "SK-OV-3": {"system": "SK-OV-3", "assay": "Cytotoxicity against human SKOV3 cells assessed as decrease in cell viability after 72 hrs by CCK8 assay", "format": "functional, cell-based", "conditions": "SK-OV-3, 72 h"}, "OV-90": {"system": "OV-90", "assay": "Cytotoxicity against human OV90 cells assessed as decrease in cell viability after 72 hrs by CCK8 assay", "format": "functional, cell-based", "conditions": "OV-90, 72 h"}, "SW626": {"system": "SW626", "assay": "Cytotoxicity against human SW626 cells assessed as decrease in cell viability after 72 hrs by CCK8 assay", "format": "functional, cell-based", "conditions": "SW626, 72 h"}, "OVCAR-3": {"system": "OVCAR-3", "assay": "Cytotoxicity against human OVCAR3 cells assessed as decrease in cell viability after 72 hrs by CCK8 assay", "format": "functional, cell-based", "conditions": "OVCAR-3, 72 h"}, "A2780": {"system": "A2780", "assay": "Cytotoxicity against human A2780 cells assessed as decrease in cell viability after 72 hrs by CCK8 assay", "format": "functional, cell-based", "conditions": "A2780, 72 h"}, "[8]": {"assay": "Cytotoxicity against human OVSAHO cells assessed as decrease in cell viability after 72 hrs by CCK8 assay", "format": "functional, cell-based"}, "RMG-I": {"system": "RMG-I", "assay": "Cytotoxicity against human RMG-1 cells assessed as decrease in cell viability after 72 hrs by CCK8 assay", "format": "functional, cell-based"}, "[9]": {"assay": "Cytotoxicity against human OVTOKO cells assessed as decrease in cell viability after 72 hrs by CCK8 assay", "format": "functional, cell-based"}}}
{"compound": "Cc1cc(O)c(-c2ccc([C@@H](C)CN)cc2)c2c1[nH]c(=O)c1sccc12", "values": [{"measurement": "IC50", "setting": "MV4-11", "result": 10.7, "unit": "nM"}, {"measurement": "IC50", "setting": "THP-1", "result": 23.5, "unit": "nM"}, {"measurement": "IC50", "setting": "KG-1", "result": 48.7, "unit": "nM"}, {"measurement": "IC50", "setting": "[1]", "result": 7.1, "unit": "nM"}, {"measurement": "IC50", "setting": "MOLM-13", "result": 9, "unit": "nM"}, {"measurement": "IC50", "setting": "KG-1a", "result": 26.2, "unit": "nM"}, {"measurement": "IC50", "setting": "K562", "result": 36.8, "unit": "nM"}, {"measurement": "IC50", "setting": "ML-2", "result": 17.9, "unit": "nM"}, {"measurement": "IC50", "setting": "U-937", "result": 19.2, "unit": "nM"}, {"measurement": "IC50", "setting": "CAKI-1", "result": 27.8, "unit": "nM"}, {"measurement": "IC50", "setting": "769-P", "result": 20.7, "unit": "nM"}, {"measurement": "IC50", "setting": "786-0", "result": 44.1, "unit": "nM"}, {"measurement": "IC50", "setting": "[2]", "result": 19.9, "unit": "nM"}, {"measurement": "IC50", "setting": "CAKI-2", "result": 20.1, "unit": "nM"}, {"measurement": "IC50", "setting": "Lu-99 cell line [3]", "result": 1.5, "unit": "nM"}, {"measurement": "IC50", "setting": "Daudi", "result": 3.7, "unit": "nM"}, {"measurement": "IC50", "setting": "MKN-1", "result": 4.6, "unit": "nM"}, {"measurement": "IC50", "setting": "HCT-116", "result": 4.8, "unit": "nM"}, {"measurement": "IC50", "setting": "MIA PaCa-2", "result": 5.2, "unit": "nM"}, {"measurement": "IC50", "setting": "UMUC3", "result": 5.7, "unit": "nM"}, {"measurement": "IC50", "setting": "MKN-45", "result": 6.1, "unit": "nM"}, {"measurement": "IC50", "setting": "DU-4475", "result": 6.4, "unit": "nM"}, {"measurement": "IC50", "setting": "A549 [4]", "result": 6.5, "unit": "nM"}, {"measurement": "IC50", "setting": "CWR22R", "result": 8, "unit": "nM"}, {"measurement": "IC50", "setting": "T47D", "result": 8.4, "unit": "nM"}, {"measurement": "IC50", "setting": "HepG2", "result": 8.5, "unit": "nM"}, {"measurement": "IC50", "setting": "MDA-MB-231", "result": 14, "unit": "nM"}, {"measurement": "inhibition in vivo at 5 mg/kg", "setting": "A549 [5]", "result": 65, "unit": "%"}, {"measurement": "inhibition in vivo at 5 mg/kg", "setting": "Lu-99 cell line [6]", "result": 104, "unit": "%"}, {"measurement": "IC50", "setting": "Caov-3 cell line", "result": 5.1, "unit": "nM"}, {"measurement": "IC50", "setting": "PA-1", "result": 5, "unit": "nM"}, {"measurement": "IC50", "setting": "[7]", "result": 5.6, "unit": "nM"}, {"measurement": "IC50", "setting": "SK-OV-3", "result": 6.3, "unit": "nM"}, {"measurement": "IC50", "setting": "OV-90", "result": 8.8, "unit": "nM"}, {"measurement": "IC50", "setting": "SW626", "result": 9.4, "unit": "nM"}, {"measurement": "IC50", "setting": "OVCAR-3", "result": 12, "unit": "nM"}, {"measurement": "IC50", "setting": "A2780", "result": 10, "unit": "nM"}, {"measurement": "IC50", "setting": "[8]", "result": 13, "unit": "nM"}, {"measurement": "IC50", "setting": "RMG-I", "result": 15, "unit": "nM"}, {"measurement": "IC50", "setting": "[9]", "result": 46, "unit": "nM"}]}
